This passage reports remaining activity results from PMC6657685, “Cloning, purification, and characterization of GH3 β-glucosidase, MtBgl85, from Microbulbifer thermotolerans DAU221” (PeerJ, 2019).

In this test the target is T1, MtBgl85 (Microbulbifer thermotolerans, UniProt Z9ZKX7DI54).
T1 construct: signal peptide (1-25, predicted) removed; N-terminal His6 tag (pCold I); expressed in E. coli BL21 (DE3); precursor 772 residues, mature 747 residues, 81,924 Da; about 85 kDa on SDS-PAGE; monomer
T1 sequence (Z9ZKX7DI54 26-772): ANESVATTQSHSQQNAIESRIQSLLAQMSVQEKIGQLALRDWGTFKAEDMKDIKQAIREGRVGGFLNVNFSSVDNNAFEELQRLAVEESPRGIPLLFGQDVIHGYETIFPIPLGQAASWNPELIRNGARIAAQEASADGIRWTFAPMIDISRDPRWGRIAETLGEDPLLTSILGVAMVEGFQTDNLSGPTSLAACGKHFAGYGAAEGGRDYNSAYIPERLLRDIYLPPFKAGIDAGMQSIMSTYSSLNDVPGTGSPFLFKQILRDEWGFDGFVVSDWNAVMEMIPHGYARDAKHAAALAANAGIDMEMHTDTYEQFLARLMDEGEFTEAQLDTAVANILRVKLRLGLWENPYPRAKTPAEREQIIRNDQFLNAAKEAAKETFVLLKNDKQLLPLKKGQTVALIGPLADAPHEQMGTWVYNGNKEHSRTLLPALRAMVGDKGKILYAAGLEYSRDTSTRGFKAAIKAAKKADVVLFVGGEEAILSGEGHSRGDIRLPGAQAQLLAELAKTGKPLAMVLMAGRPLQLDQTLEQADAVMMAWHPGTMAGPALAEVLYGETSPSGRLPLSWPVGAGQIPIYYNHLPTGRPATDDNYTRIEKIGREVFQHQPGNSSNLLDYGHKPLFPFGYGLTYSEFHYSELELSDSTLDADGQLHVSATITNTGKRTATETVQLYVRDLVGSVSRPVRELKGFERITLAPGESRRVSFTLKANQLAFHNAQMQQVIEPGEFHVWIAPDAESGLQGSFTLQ
Nature of the test: residual activity with pNPβG. The class given is biochemical. The note with it: read-out: % residual activity at 10 mM.

Structures are written as SMILES.

Regarding `OC[C@H]1OC(O)[C@H](O)[C@@H](O)[C@@H]1O` (stereo partly shown) [glucose], the remaining activity at 10000 µM was determined as 59%.
